Reference: the supplement of paper PMC10307832

Tests used:
Assay in all cases: relative viability (nuclei count vs DMSO), 5 days (fraction); higher = more cells survive
[1] = compound: CC(=O)c1c(C)c2cnc(Nc3ccc(N4CCNCC4)cn3)nc2n(C2CCCC2)c1=O [Palbociclib] + N=C(N)NC(=N)NCCc1ccccc1 [Phenformin] (partner 250 µM)
Procedure, shortened: (§1)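 Relative viability equals treated-well nuclei counts divided by vehicle-well nuclei counts. Counts came from 4× images of lung cancer cell lines grown in 1536-well plates for 5 days after pin-tool dosing on the day after seeding. Dosing used one drug alone or a fixed anchor-drug dose plus five library-drug doses (not always all listed) in √10 steps, and values are medians of duplicate plates.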

[2] = compound: CC(=O)c1c(C)c2cnc(Nc3ccc(N4CCNCC4)cn3)nc2n(C2CCCC2)c1=O [Palbociclib] + Cc1nc(NC(=O)N2CCC[C@H]2C(N)=O)sc1-c1ccnc(C(C)(C)C(F)(F)F)c1 [Alpelisib] (partner 2 µM)
Procedure, shortened: as §1

[3] = compound: CC(=O)c1c(C)c2cnc(Nc3ccc(N4CCNCC4)cn3)nc2n(C2CCCC2)c1=O [Palbociclib] + O=C(c1cc(Cc2n[nH]c(=O)c3ccccc23)ccc1F)N1CCN(C(=O)C2CC2)CC1 [Olaparib] (partner 8 µM)
Procedure, shortened: as §1

[4] = compound: CC(=O)c1c(C)c2cnc(Nc3ccc(N4CCNCC4)cn3)nc2n(C2CCCC2)c1=O [Palbociclib] + C[C@]1(O)C[C@@H](c2nc(-c3ccc4ccc(-c5ccccc5)nc4c3)c3c(N)nccn32)C1 [Linsitinib] (partner 1 µM)
Procedure, shortened: as §1

Cell Line | relative viability ([1]; first compound 0.01 µM) | relative viability ([1]; first compound 0.1 µM) | relative viability ([1]; first compound 0.3162 µM) | relative viability ([1]; first compound 1 µM) | relative viability ([2]; first compound 0.01 µM) | relative viability ([2]; first compound 0.03162 µM) | relative viability ([2]; first compound 0.1 µM) | relative viability ([2]; first compound 0.3162 µM) | relative viability ([2]; first compound 1 µM) | relative viability ([3]; first compound 0.01 µM) | relative viability ([3]; first compound 0.03162 µM) | relative viability ([3]; first compound 0.1 µM) | relative viability ([3]; first compound 0.3162 µM) | relative viability ([3]; first compound 1 µM) | relative viability ([4]; first compound 0.01 µM) | relative viability ([4]; first compound 0.03162 µM) | relative viability ([4]; first compound 0.1 µM) | relative viability ([4]; first compound 0.3162 µM) | relative viability ([4]; first compound 1 µM) | relative viability ([1]; first compound 0.03162 µM)
NCI-H2087 | 0.449 | 0.291 | 0.229 | 0.189 | 1.18 | 0.962 | 0.824 | 0.68 | 0.531 | 0.721 | 0.517 | 0.403 | 0.437 | 0.248 | 0.932 | 0.837 | 0.826 | 0.503 | 0.541 | –
NCI-H2126 | 0.494 | 0.381 | 0.413 | 0.392 | 0.793 | 0.748 | 0.679 | 0.591 | 0.414 | 0.972 | 0.833 | 0.698 | 0.719 | 0.526 | 0.736 | 0.706 | 0.693 | 0.598 | 0.428 | 0.418
NCI-H2228 | 0.322 | 0.293 | 0.258 | 0.307 | 0.73 | 0.566 | 0.609 | 0.59 | 0.589 | 0.724 | 0.624 | 0.55 | 0.64 | 0.465 | 0.51 | 0.573 | 0.674 | 0.598 | 0.83 | 0.287
NCI-H2347 | 0.612 | 0.285 | 0.26 | 0.182 | 1.15 | 0.979 | 0.642 | 0.789 | 0.597 | 0.606 | 0.549 | 0.564 | 0.51 | 0.49 | 1.04 | 0.868 | 0.597 | 0.723 | 0.595 | –
NCI-H2405 | 0.387 | 0.327 | 0.36 | 0.317 | 0.792 | – | 0.441 | 0.678 | 0.494 | 0.842 | 0.841 | 0.765 | 0.682 | 0.527 | 0.992 | – | 0.49 | 0.808 | 0.54 | 0.344
NCI-H3122 | 0.353 | 0.279 | 0.282 | 0.167 | 0.76 | 0.667 | 0.688 | 0.46 | 0.353 | 0.596 | 0.576 | 0.635 | 0.584 | 0.528 | 0.925 | 1.02 | 0.943 | 0.809 | 0.63 | 0.323
PC-3 [JPC-3] | 0.514 | 0.459 | 0.445 | 0.378 | 1.06 | 1.02 | 0.851 | 0.88 | 0.618 | 1.16 | 0.903 | 0.816 | 0.872 | 0.526 | 0.981 | 0.888 | 0.878 | 0.787 | 0.613 | 0.464
